The experiment concerns the target IRAK4 (Homo sapiens (Human), UniProt Q9NWZ3). The experiment is described as follows: IRAK4 Inhibition Assay. In kind it is biochemical. The conditions noted are these: ATP 500 μM; IRAK4 0.6 nM. As for the experimental part: The assays were performed in U-bottom 384-well plates. The final assay volume was 30 μL prepared from 15 μL additions of enzyme and substrates (fluoresceinated peptide and ATP) and test compounds in assay buffer (20 mM HEPES pH 7.2, 10 mM MgCl2, 0.015% Brij 35 and 4 mM DTT). The reaction was initiated by the combination of IRAK4 with substrates and test compounds. The reaction mixture was incubated at room temperature for 60 min. and terminated by adding 45 μL of 35 mM EDTA to each sample. The reaction mixture was analyzed on the Caliper LABCHIP® 3000 (Caliper, Hopkinton, Mass.) by electrophoretic separation of the fluorescent substrate and phosphorylated product. Inhibition data were calculated by comparison to no enzyme control reactions for 100% inhibition and vehicle-only reactions for 0% inhibition. The final concentrations of reagents in the assays are ATP, 500 μM; FL-IPTSPITTTYFFFKKK peptide 1.5 μM; IRAK4, 0.6 nM; and DMSO, 1.6%.
Chain of IRAK4 (Q9NWZ3 whole entry, species assumed): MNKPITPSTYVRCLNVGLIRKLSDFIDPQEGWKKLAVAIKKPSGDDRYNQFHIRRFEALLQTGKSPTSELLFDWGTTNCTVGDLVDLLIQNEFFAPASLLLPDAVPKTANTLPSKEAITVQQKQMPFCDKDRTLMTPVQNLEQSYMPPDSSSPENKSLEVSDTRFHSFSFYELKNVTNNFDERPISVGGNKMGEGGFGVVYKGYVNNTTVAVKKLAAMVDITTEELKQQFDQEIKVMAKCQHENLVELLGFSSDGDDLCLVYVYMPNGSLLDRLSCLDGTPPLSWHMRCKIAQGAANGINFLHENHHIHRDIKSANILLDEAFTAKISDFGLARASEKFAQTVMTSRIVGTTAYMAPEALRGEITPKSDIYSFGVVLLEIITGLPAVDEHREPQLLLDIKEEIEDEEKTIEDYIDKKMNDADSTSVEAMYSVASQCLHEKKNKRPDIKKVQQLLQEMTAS
On to `CC(C)Nc1cc(-n2cnc3cc(C#N)cnc32)ncc1-c1cn([C@@H]2COC[C@H]2O)nn1` (single isomer, unassigned) [Example 74], for which the IC50 – broadly, the midpoint of a concentration-inhibition curve – came to 7 nM. With `CC(C)Nc1cc(-n2ncc3cc(C#N)cnc32)ncc1-c1cn(CC(O)Cc2ccccc2)nn1` (single isomer, unassigned) [Example 76, 1-(5-(1-(2-hydroxy-3-phenylpropyl)-1H-1,2,3-triazol-4-yl)-4-(isopropylamino)pyridin-2-yl)-1H-pyrazolo [3,4-b]pyridine-5-carbonitrile] the figure was 7 nM. With `CC(C)Nc1cc(-n2ncc3cc(C#N)cnc32)ncc1-c1cn(CC(O)Cc2ccccc2)nn1` (single isomer, unassigned) [Example 77, 1-(5-(1-(2-hydroxy-3-phenylpropyl)-1H-1,2,3-triazol-4-yl)-4-(isopropylamino)pyridin-2-yl)-1H-pyrazolo [3,4-b]pyridine-5-carbonitrile] the figure was 21 nM; with `CC(C)Nc1cc(-n2cnc3cc(C#N)cnc32)ncc1-c1cn(CC(O)Cc2ccccc2)nn1` (single isomer, unassigned) [Example 78, 3-(5-(1-(2-hydroxy-3-phenylpropyl)-1H-1,2,3-triazol-4-yl)-4-(isopropylamino)pyridin-2-yl)-3H-imidazo[4,5-b]pyridine-6-carbonitrile], 43 nM.

On to `CC(C)Nc1cc(-n2cnc3cc(C#N)cnc32)ncc1-c1cn(CC(O)Cc2ccccc2)nn1` (single isomer, unassigned) [Example 79, 3-(5-(1-(2-hydroxy-3-phenylpropyl)-1H-1,2,3-triazol-4-yl)-4-(isopropylamino)pyridin-2-yl)-3H-imidazo[4,5-b]pyridine-6-carbonitrile], for which the IC50 was 26 nM.

Consider `CCC(C)(O)Cn1cc(-c2cnc(-n3cnc4cc(C#N)cnc43)cc2NC(C)C)nn1` (single isomer, unassigned) [Example 94, 3-(5-(1-(2-hydroxy-2-methylbutyl)-1H-1,2,3-triazol-4-yl)-4-(isopropylamino)pyridin-2-yl)-3H-imidazo[4,5-b]pyridine-6-carbonitrile], for which the IC50 was 21 nM. With `CCC(C)(O)Cn1cc(-c2cnc(-n3cnc4cc(C#N)cnc43)cc2NC(C)C)nn1` (single isomer, unassigned) [Example 95, 3-(5-(1-(2-hydroxy-2-methylbutyl)-1H-1,2,3-triazol-4-yl)-4-(isopropylamino)pyridin-2-yl)-3H-imidazo[4,5-b]pyridine-6-carbonitrile] the figure was 16 nM. Turning to `CC(C)Nc1cc(-n2ncc3cc(C#N)cnc32)ncc1-c1cn([C@@H]2CCN(C(=O)C(C)(C)C)C[C@H]2O)nn1` (single isomer, unassigned) [Example 200], the IC50 amounted to 5 nM.

Regarding `COC(=O)N1CC[C@@H](n2cc(-c3cnc(-n4ncc5cc(C#N)cnc54)cc3NC(C)C)nn2)[C@H](O)C1` (single isomer, unassigned) [Example 201], the half-maximal inhibitory concentration (IC50) was 4 nM. In the case of `COC(=O)N1CC[C@@H](n2cc(-c3cnc(-n4ncc5cc(C#N)cnc54)cc3NC(C)C)nn2)[C@H](O)C1` (single isomer, unassigned) [Example 205], the half-inhibitory concentration (IC50) amounted to 5 nM.

Take `CC(O)Cc1cn(-c2cnc(-n3ncc4cc(C#N)cnc43)cc2NC2CC2)nn1` (single isomer, unassigned) [Example 274, 1-(4-(cyclopropylamino)-5-(4-(2-hydroxypropyl)-1H-1,2,3-triazol-1-yl)pyridin-2-yl)-1H-pyrazolo[3,4-b]pyridine-5-carbonitrile]: the IC50 was found to be 23 nM. With `CC(O)Cc1cn(-c2cnc(-n3ncc4cc(C#N)cnc43)cc2NC2CC2)nn1` (single isomer, unassigned) [Example 275, 1-(4-(cyclopropylamino)-5-(4-(2-hydroxypropyl)-1H-1,2,3-triazol-1-yl)pyridin-2-yl)-1H-pyrazolo[3,4-b]pyridine-5-carbonitrile] the figure was 30 nM. With `CC(F)Cc1cn(-c2cnc(-n3cnc4cc(C#N)cnc43)cc2NC(C)C)nn1` (single isomer, unassigned) [Example 290, 3-(5-(4-(2-fluoropropyl)-1H-1,2,3-triazol-1-yl)-4-(isopropylamino)pyridin-2-yl)-3H-imidazo[4,5-b]pyridine-6-carbonitrile] the figure was 25 nM. Consider `CC(F)Cc1cn(-c2cnc(-n3ncc4cc(C#N)cnc43)cc2NC(C)C)nn1` (single isomer, unassigned) [Example 292, 1-(5-(4-(2-fluoropropyl)-1H-1,2,3-triazol-1-yl)-4-(isopropylamino)pyridin-2-yl)-1H-pyrazolo[3,4-b]pyridine-5-carbonitrile], for which the IC50 amounted to 29 nM. As for `CC(F)Cc1cn(-c2cnc(-n3cnc4cnc(N)nc43)cc2NC(C)C)nn1` (single isomer, unassigned) [Example 293, 9-(5-(4-(2-fluoropropyl)-1H-1,2,3-triazol-1-yl)-4-(isopropylamino)pyridin-2-yl)-9H-purin-2-amine], the IC50 turned out to be 28 nM. With `CC(C)Nc1cc(-n2ccc3cncnc32)ncc1-c1cn(Cc2cc(=O)[nH]c(=O)[nH]2)nn1` [Example 8, 6-((4-(4-(isopropylamino)-6-(7H-pyrrolo[2,3-d]pyrimidin-7-yl)pyridin-3-yl)-1H-1,2,3-triazol-1-yl)methyl)pyrimidine-2,4(1H,3H)-dione], the IC50 is 7 nM. In the case of `CC(C)Nc1cc(-n2ccc3cncnc32)ncc1-c1cn(CCOCCOCCOCCO)nn1` [Example 9, 2-(2-(2-(2-(4-(4-(isopropylamino)-6-(7H-pyrrolo[2,3-d]pyrimidin-7-yl)pyridin-3-yl)-1H-1,2,3-triazol-1-yl)ethoxy)ethoxy)ethoxy) ethanol], the IC50 is 3 nM.

Take `CC(C)Nc1cc(-n2ncc3cc(C#N)cnc32)ncc1-c1cn(C2COC2)nn1` [Example 15, 1-(4-(isopropylamino)-5-(1-(oxetan-3-yl)-1H-1,2,3-triazol-4-yl)pyridin-2-yl)-1H-pyrazolo[3,4-b]pyridine-5-carbonitrile]: the IC50 was 7 nM. For the compound `CC(C)Nc1cc(-n2ncc3cc(C#N)cnc32)ncc1-c1cn(C(C)(C)C)nn1` [Example 18, 1-(5-(1-(tert-butyl)-1H-1,2,3-triazol-4-yl)-4-(isopropylamino)pyridin-2-yl)-1H-pyrazolo[3,4-b]pyridine-5-carbonitrile], the concentration for half-maximal inhibition (IC50) turned out to be 17 nM. With `CC(C)Nc1cc(-n2ncc3cc(C#N)cnc32)ncc1-c1cn(C2CCOCC2)nn1` [Example 19, 1-(4-(isopropylamino)-5-(1-(tetrahydro-2H-pyran-4-yl)-1H-1,2,3-triazol-4-yl)pyridin-2-yl)-1H-pyrazolo[3,4-b]pyridine-5-carbonitrile] the figure was 1 nM; with `CC(C)Nc1cc(-n2cnc3cc(C#N)cnc32)ncc1-c1cn(C(C)(C)C)nn1` [Example 23, 3-(5-(1-(tert-butyl)-1H-1,2,3-triazol-4-yl)-4-(isopropylamino)pyridin-2-yl)-3H-imidazo[4,5-b]pyridine-6-carbonitrile], 96 nM.

In the case of `CC(C)Nc1cc(-n2cnc3cc(C#N)cnc32)ncc1-c1cn(C2CCOCC2)nn1` [Example 24, 3-(4-(isopropylamino)-5-(1-(tetrahydro-2H-pyran-4-yl)-1H-1,2,3-triazol-4-yl)pyridin-2-yl)-3H-imidazo[4,5-b]pyridine-6-carbonitrile], the IC50 was found to be 3 nM. With `CC(C)Nc1cc(-n2ncc3cc(Cl)cnc32)ncc1-c1cn(C2COC2)nn1` [Example 26, 2-(5-chloro-1H-pyrazolo[3,4-b]pyridin-1-yl)-N-isopropyl-5-(1-(oxetan-3-yl)-1H-1,2,3-triazol-4-yl)pyridin-4-amine] the figure was 27 nM.

`CC(C)Nc1cc(-n2ncc3cc(Cl)cnc32)ncc1-c1cn(CC2CC2)nn1` [Example 27, 2-(5-chloro-1H-pyrazolo [3,4-b]pyridin-1-yl)-5-(1-(cyclopropylmethyl)-1H-1,2,3-triazol-4-yl)-N-isopropylpyridin-4-amine]: the IC50 worked out at 16 nM. Regarding `CCCn1cc(-c2cnc(-n3ncc4cc(Cl)cnc43)cc2NC2CC2)nn1` [Example 36, 2-(5-chloro-1H-pyrazolo[3,4-b]pyridin-1-yl)-N-cyclopropyl-5-(1-propyl-1H-1,2,3-triazol-4-yl)pyridin-4-amine], the IC50 was 11 nM.

`CCn1cc(-c2cnc(-n3cnc4cc(C#N)cnc43)cc2NC(C)C)nn1` [Example 38, 3-(5-(1-ethyl-1H-1,2,3-triazol-4-yl)-4-(isopropylamino)pyridin-2-yl)-3H-imidazo[4,5-b]pyridine-6-carbonitrile]: the IC50 worked out at 10 nM. With `CCCn1cc(-c2cnc(-n3cnc4cc(C#N)cnc43)cc2NC2CC2)nn1` [Example 43, 3-(4-(cyclopropylamino)-5-(1-propyl-1H-1,2,3-triazol-4-yl)pyridin-2-yl)-3H-imidazo[4,5-b]pyridine-6-carbonitrile] the figure was 6 nM; with `CC(C)Nc1cc(-n2cnc3cc(C#N)cnc32)ncc1-c1cn(CCCF)nn1` [Example 45, 3-(5-(1-(3-fluoropropyl)-1H-1,2,3-triazol-4-yl)-4-(isopropylamino)pyridin-2-yl)-3H-imidazo[4,5-b]pyridine-6-carbonitrile], 8 nM. For the compound `CC(C)Nc1cc(-n2ncc3cc(C#N)cnc32)ncc1-c1cn(CC#N)nn1` [Example 47, 1-(5-(1-(cyanomethyl)-1H-1,2,3-triazol-4-yl)-4-(isopropylamino)pyridin-2-yl)-1H-pyrazolo[3,4-b]pyridine-5-carbonitrile], the IC50 stood at 16 nM.
